Data taken from PubChem BioAssay (NCI).
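At the GI50, growth is halved. TGI marks complete inhibition of growth.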

Tests used:
Experiment in all cases: inhibition of tumour cell growth, NCI panel, 384-well format
MDA-MB-435 melanoma = system: MDA-MB-435 melanoma
SF-539 CNS = system: SF-539 CNS
HOP-62 NSCLC = system: HOP-62 NSCLC
LOX IMVI melanoma = system: LOX IMVI melanoma
TK-10 renal = system: TK-10 renal
DU-145 prostate = system: DU-145 prostate
OVCAR-4 ovarian = system: OVCAR-4 ovarian
SF-268 CNS = system: SF-268 CNS
HL-60(TB) leukemia = system: HL-60(TB) leukemia
SK-MEL-2 melanoma = system: SK-MEL-2 melanoma
NCI/ADR-RES ovarian = system: NCI/ADR-RES ovarian
SNB-19 CNS = system: SNB-19 CNS
OVCAR-3 ovarian = system: OVCAR-3 ovarian
MDA-MB-468 breast = system: MDA-MB-468 breast
SF-295 CNS = system: SF-295 CNS
RXF 393 renal = system: RXF 393 renal
UACC-62 melanoma = system: UACC-62 melanoma
HCT-116 colon = system: HCT-116 colon
MALME-3M melanoma = system: MALME-3M melanoma
SN12C renal = system: SN12C renal
OVCAR-5 ovarian = system: OVCAR-5 ovarian
A549 NSCLC = system: A549 NSCLC
SK-MEL-5 melanoma = system: SK-MEL-5 melanoma
SW-620 colon = system: SW-620 colon
NCI-H522 lung = system: NCI-H522 lung
MOLT-4 leukemia = system: MOLT-4 leukemia
U251 glioblastoma = system: U251 glioblastoma
HCC-2998 colon = system: HCC-2998 colon
HT29 colon = system: HT29 colon
MCF7 breast = system: MCF7 breast
NCI-H460 NSCLC = system: NCI-H460 NSCLC
NCI-H23 lung = system: NCI-H23 lung
RPMI-8226 leukemia = system: RPMI-8226 leukemia
HOP-92 NSCLC = system: HOP-92 NSCLC
CCRF-CEM leukemia = system: CCRF-CEM leukemia
786-0 renal = system: 786-0 renal
NCI-H226 lung = system: NCI-H226 lung
HCT-15 colon = system: HCT-15 colon
SK-MEL-28 melanoma = system: SK-MEL-28 melanoma
M14 melanoma = system: M14 melanoma
ACHN renal = system: ACHN renal
K-562 leukemia = system: K-562 leukemia
OVCAR-8 ovarian = system: OVCAR-8 ovarian
COLO 205 colon = system: COLO 205 colon
UO-31 renal = system: UO-31 renal
NCI-H322M lung = system: NCI-H322M lung
UACC-257 melanoma = system: UACC-257 melanoma
SK-OV-3 ovarian = system: SK-OV-3 ovarian
T-47D breast = system: T-47D breast
BT-549 breast = system: BT-549 breast
IGROV1 ovarian = system: IGROV1 ovarian
PC-3 prostate = system: PC-3 prostate
SR leukemia = system: SR leukemia
KM12 colon = system: KM12 colon
MDA-MB-231 breast = system: MDA-MB-231 breast
A498 renal = system: A498 renal
CAKI-1 renal = system: CAKI-1 renal

Structure (SMILES): COc1cccc2c1C(=O)c1c(O)c3c(c(O)c1C2=O)C[C@@](O)(/C(CO)=N/NC(=O)CCCCCN1C(=O)C=CC1=O)C[C@@H]3O[C@H]1C[C@H](N)[C@H](O)[C@H](C)O1
- GI50 (MDA-MB-435 melanoma): 268 nM
- TGI (MDA-MB-435 melanoma): 1480 nM
- GI50 (SF-539 CNS): 38.7 nM
- TGI (SF-539 CNS): 140 nM
- GI50 (HOP-62 NSCLC): 103 nM
- TGI (HOP-62 NSCLC): 273 nM
- GI50 (LOX IMVI melanoma): 166 nM
- TGI (LOX IMVI melanoma): 381 nM
- GI50 (TK-10 renal): 225 nM
- TGI (TK-10 renal): 1040 nM
- GI50 (DU-145 prostate): 152 nM
- TGI (DU-145 prostate): 365 nM
- GI50 (OVCAR-4 ovarian): 243 nM
- TGI (OVCAR-4 ovarian): 716 nM
- GI50 (SF-268 CNS): 71.4 nM
- TGI (SF-268 CNS): 372 nM
- GI50 (HL-60(TB) leukemia): 15.1 nM
- TGI (HL-60(TB) leukemia): 29.4 nM
- GI50 (SK-MEL-2 melanoma): 101 nM
- TGI (SK-MEL-2 melanoma): 229 nM
- GI50 (NCI/ADR-RES ovarian): 12300 nM
- TGI (NCI/ADR-RES ovarian): 44900 nM
- GI50 (SNB-19 CNS): 127 nM
- TGI (SNB-19 CNS): 553 nM
- GI50 (OVCAR-3 ovarian): 159 nM
- TGI (OVCAR-3 ovarian): 686 nM
- GI50 (MDA-MB-468 breast): 44.8 nM
- TGI (MDA-MB-468 breast): 169 nM
- GI50 (SF-295 CNS): 154 nM
- TGI (SF-295 CNS): 470 nM
- GI50 (RXF 393 renal): 45.2 nM
- TGI (RXF 393 renal): 228 nM
- GI50 (UACC-62 melanoma): 75.9 nM
- TGI (UACC-62 melanoma): 233 nM
- GI50 (HCT-116 colon): 74.9 nM
- TGI (HCT-116 colon): 626 nM
- GI50 (MALME-3M melanoma): 152 nM
- TGI (MALME-3M melanoma): 403 nM
- GI50 (SN12C renal): 139 nM
- TGI (SN12C renal): 391 nM
- GI50 (OVCAR-5 ovarian): 522 nM
- TGI (OVCAR-5 ovarian): 3000 nM
- GI50 (A549 NSCLC): 98 nM
- TGI (A549 NSCLC): 1430 nM
- GI50 (SK-MEL-5 melanoma): 124 nM
- TGI (SK-MEL-5 melanoma): 328 nM
- GI50 (SW-620 colon): 59.3 nM
- TGI (SW-620 colon): 829 nM
- GI50 (NCI-H522 lung): 29.4 nM
- TGI (NCI-H522 lung): 148 nM
- GI50 (MOLT-4 leukemia): 10.9 nM
- TGI (MOLT-4 leukemia): 23 nM
- GI50 (U251 glioblastoma): 50.4 nM
- TGI (U251 glioblastoma): 188 nM
- GI50 (HCC-2998 colon): 123 nM
- TGI (HCC-2998 colon): 294 nM
- GI50 (HT29 colon): 148 nM
- TGI (HT29 colon): 780 nM
- GI50 (MCF7 breast): 93.6 nM
- TGI (MCF7 breast): 377 nM
- GI50 (NCI-H460 NSCLC): 25.2 nM
- TGI (NCI-H460 NSCLC): 136 nM
- GI50 (NCI-H23 lung): 166 nM
- TGI (NCI-H23 lung): 381 nM
- TGI (RPMI-8226 leukemia): 173 nM
- GI50 (HOP-92 NSCLC): 37 nM
- TGI (HOP-92 NSCLC): 247 nM
- GI50 (CCRF-CEM leukemia): 15.3 nM
- TGI (CCRF-CEM leukemia): 34 nM
- GI50 ([…]-0 renal): 110 nM
- TGI (786-0 renal): 368 nM
- GI50 (NCI-H226 lung): 122 nM
- TGI (NCI-H226 lung): 288 nM
- GI50 (HCT-15 colon): 470 nM
- TGI (HCT-15 colon): 3110 nM
- GI50 (SK-MEL-28 melanoma): 126 nM
- TGI (SK-MEL-28 melanoma): 519 nM
- GI50 (M14 melanoma): 72.6 nM
- TGI (M14 melanoma): 258 nM
- GI50 (ACHN renal): 258 nM
- TGI (ACHN renal): 1360 nM
- GI50 (K-562 leukemia): 114 nM
- TGI (K-562 leukemia): 1060 nM
- GI50 (OVCAR-8 ovarian): 141 nM
- TGI (OVCAR-8 ovarian): 1310 nM
- GI50 (COLO 205 colon): 36.6 nM
- TGI (COLO 205 colon): 183 nM
- GI50 (UO-31 renal): 1260 nM
- TGI (UO-31 renal): 3130 nM
- GI50 (NCI-H322M lung): 917 nM
- TGI (NCI-H322M lung): 2680 nM
- GI50 (UACC-257 melanoma): 180 nM
- TGI (UACC-257 melanoma): 552 nM
- GI50 (SK-OV-3 ovarian): 138 nM
- TGI (SK-OV-3 ovarian): 339 nM
- GI50 (T-47D breast): 61.5 nM
- TGI (T-47D breast): 280 nM
- GI50 (BT-549 breast): 59.9 nM
- TGI (BT-549 breast): 271 nM
- GI50 (IGROV1 ovarian): 346 nM
- TGI (IGROV1 ovarian): 2480 nM
- GI50 (PC-3 prostate): 407 nM
- TGI (PC-3 prostate): 1940 nM
- TGI (SR leukemia): 15.7 nM
- GI50 (KM12 colon): 116 nM
- TGI (KM12 colon): 295 nM
- GI50 (MDA-MB-231 breast): 62.5 nM
- TGI (MDA-MB-231 breast): 206 nM
- GI50 (A498 renal): 95.8 nM
- TGI (A498 renal): 1440 nM
- GI50 (CAKI-1 renal): 155 nM
- TGI (CAKI-1 renal): 1060 nM
